Patent publication US20250223301A1, “KINASE INHIBITORS, PREPARATION METHODS AND USES THEREOF” (InventisBio Co., Ltd., priority 2022, published 2025)
Read-outs that look alike come from different tables or passages of the source.

Key:
[1] = Human microsomal clearance assay; format: in vitro ADME; settings: pH 7.4; for CLint scaled at 1 μM: human, liver microsomes; for half-life at 1 μM: human liver microsomes 0.5 mg/mL, 1 uM compound
Protocol: This study aimed to assess the metabolic stability of a compound in human liver microsomes using a microsomal clearance assay.
A mixture containing 100 mM potassium phosphate, pH 7.4, 0.5 mg/mL liver microsomes, 2 mM NADPH, and 1 μM compound were prepared and added to 96-well plate. The plates were then incubated at 37 ? for different time points (0, 5, 15, 30, 45 minutes) and the reaction was stopped with acetonitrile solution containing an internal standard. The samples were then analyzed by LC/MS/MS to determine how much of the compound remained at each time point. The elimination rate constant and half-life were calculated from the data, and the in vitro intrinsic clearance (CLint) was determined as follows: […]

[2] = tested on: PBMC; test: Human PBMC IL-2 assay; format: cell-based; settings: anti-CD3/CD28 stimulation overnight, IL-2 level
In short: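 Healthy-donor frozen PBMC were thawed, rested 4 h at 37 °C and plated at ~200,000 cells/well. Cells were preincubated 60 min at 37 °C with compound solution (10 uM to 0.6 nM, 8 points, 4-fold, as added), then stimulated overnight with anti-CD3/CD28. Supernatant IL-2 was quantified by immunoassay kit and plotted against log compound concentration.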

[3] = tested on: Jurkat cells; test: Jurkat IL-2 assay; format: cell-based; settings: Homo sapiens, anti-CD3/CD28 stimulation overnight, IL-2 level
In short: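 Cells in RPMI-1640 with 10% FBS received compound solution (5 uM to 2.3 nM, 8 points, 3-fold dilution) for 60 minutes at 37° C. They were then stimulated overnight at 37° C. with anti-CD3/CD28 antibody. IL-2 in the supernatant was quantified by immunoassay kit and plotted against log compound concentration.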

[4] = tested on: whole blood from male C57BL6 mice; test: Mouse whole blood IFN-gamma assay; format: cell-based; settings: anti-mouse CD3/CD28 0.6 ug/mL, 20 hours
Protocol: The whole blood from male C57BL6 mice (6-8 weeks old, Beijing Vital River Laboratory Animal Technology Co., Ltd.) was collected, pooled and dispensed at 200 uL per well in a 96-well plate. The blood was treated with compounds for one hour at 37° C. in a humidified 5% CO2 incubator. The blood was then stimulated with anti-mouse CD3 and anti-mouse CD28 antibody (BioLegend Cat #100340, #102116) at a final concentration of 0.6 ug/mL for 20 hours at 37° C. in a humidified 5% CO2 incubator. The blood was spun down, IFN-gamma in the supernatants was measured using ELISA kit (Excellbio Cat #EM002-96, #EM007-96) according the manufacture's instruction.

[5] = target: T1, DGKa (Homo sapiens (Human), UniProt P23743);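 note: biochemical DGK kinase assay, ADP-Glo luminescence from ADP made by phosphorylating 1,2-dioleoyl-sn-glycerol, 20 min compound preincubation then 40 min reaction at 25 °C, 1% DMSO control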
T1 sequence (P23743 whole entry): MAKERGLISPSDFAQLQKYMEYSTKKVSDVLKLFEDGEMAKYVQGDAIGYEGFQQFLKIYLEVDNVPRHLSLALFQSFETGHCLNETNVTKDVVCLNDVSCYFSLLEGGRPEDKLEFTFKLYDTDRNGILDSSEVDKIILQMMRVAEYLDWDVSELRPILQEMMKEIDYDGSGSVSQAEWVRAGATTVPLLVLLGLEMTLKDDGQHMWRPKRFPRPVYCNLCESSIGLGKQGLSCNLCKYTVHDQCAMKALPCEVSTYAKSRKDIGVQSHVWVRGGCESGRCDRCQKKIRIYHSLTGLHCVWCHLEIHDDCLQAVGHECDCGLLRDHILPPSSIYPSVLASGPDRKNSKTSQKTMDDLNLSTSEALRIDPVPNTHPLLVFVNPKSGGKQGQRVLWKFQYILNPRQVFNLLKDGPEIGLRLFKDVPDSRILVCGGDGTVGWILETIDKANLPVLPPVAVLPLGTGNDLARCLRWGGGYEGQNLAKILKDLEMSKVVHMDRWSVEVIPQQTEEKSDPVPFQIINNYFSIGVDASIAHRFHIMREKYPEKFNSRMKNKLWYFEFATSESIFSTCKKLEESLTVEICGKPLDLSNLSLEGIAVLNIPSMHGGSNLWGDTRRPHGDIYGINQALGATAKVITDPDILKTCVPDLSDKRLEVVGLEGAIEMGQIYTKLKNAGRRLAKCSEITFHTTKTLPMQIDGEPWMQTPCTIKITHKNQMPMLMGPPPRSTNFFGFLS
Protocol: (§1) The DGKa and DGKz kinase assays were performed using Promega ADP-Glo kit (Promega, Cat #V9102). One microliter test compound was added to a 384-well plate. Reactions were performed in a 5 uL volume by adding 2 uL mixture of DGK enzyme and ATP in assay buffer (50 mM MOPS pH 7.5, 100 mM NaCl, 10 mM MgCl2, 1 mM CaCl2, 0.0025% BSA, and 1 mM DTT). […] The enzyme solution was incubated with test compound at 25 ? for 20 min. […] The reaction was initiated by the addition of 2 uL of substrate solution (7 uM 1.2-dioleoyl-sn-glycerol, 5 mM octyl-b-D-glucopyranoside) in the 5 uL assay volume. The resulting mixture was incubated at 25° C. for 40 minutes. Next, 5 uL of ADP-Glo-reagent was added to the plate and incubated for 40 minutes. Then 10 uL of kinase detection reagent was added and incubated for 30 minutes. Luminescence was recorded using an Tecan SPARK microplate reader. 1% DMSO vehicle was used as control and no enzyme well was used as blank well.

[6] = target: DGKz (Homo sapiens (Human), UniProt Q13574); test: DGK ADP-Glo kinase assay (DGKz); format: biochemical; settings: 5 nM DGKz, 15 uM ATP
DGKz, sequence (Q13574 whole entry): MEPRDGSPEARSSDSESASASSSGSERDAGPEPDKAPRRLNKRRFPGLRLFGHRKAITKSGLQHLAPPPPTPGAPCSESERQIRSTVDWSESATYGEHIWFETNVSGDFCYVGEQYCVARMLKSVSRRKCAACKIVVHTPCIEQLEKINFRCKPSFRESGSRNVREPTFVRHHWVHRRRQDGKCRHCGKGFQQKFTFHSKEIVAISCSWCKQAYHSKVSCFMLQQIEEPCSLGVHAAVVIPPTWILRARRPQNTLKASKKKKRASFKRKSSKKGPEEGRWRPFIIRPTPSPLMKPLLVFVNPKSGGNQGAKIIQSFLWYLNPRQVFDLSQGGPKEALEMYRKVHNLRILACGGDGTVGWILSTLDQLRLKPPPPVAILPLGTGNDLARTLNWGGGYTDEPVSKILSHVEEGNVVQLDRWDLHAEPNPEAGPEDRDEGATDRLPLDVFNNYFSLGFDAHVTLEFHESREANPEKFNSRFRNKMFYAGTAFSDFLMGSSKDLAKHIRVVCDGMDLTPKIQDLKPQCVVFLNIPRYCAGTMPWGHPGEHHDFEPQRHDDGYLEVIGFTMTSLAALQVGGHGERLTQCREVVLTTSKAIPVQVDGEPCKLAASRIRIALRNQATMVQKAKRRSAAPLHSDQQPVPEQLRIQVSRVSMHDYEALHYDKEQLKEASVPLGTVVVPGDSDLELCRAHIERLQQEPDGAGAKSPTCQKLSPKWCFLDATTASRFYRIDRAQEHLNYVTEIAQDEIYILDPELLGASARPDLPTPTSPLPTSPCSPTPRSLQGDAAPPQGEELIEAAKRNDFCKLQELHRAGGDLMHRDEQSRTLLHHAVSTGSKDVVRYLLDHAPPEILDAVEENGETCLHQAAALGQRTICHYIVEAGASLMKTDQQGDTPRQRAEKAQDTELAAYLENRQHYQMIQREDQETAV
Protocol: Luminescence was recorded using an Tecan SPARK microplate reader.

[7] = target: T1, DGKa; test: biochemical
Protocol: as §1

SMILES	IC50 [5]	IC50 [6]	further results
CC[C@@H]1CN2c3c(c(=O)n(C)c4ccc(C#N)nc34)OC[C@@H]2CN1[C@@H](CC)c1ccc(S(F)(F)(F)(F)F)cc1 (stereo in doubt) [Compound 151]			CLint scaled at 1 μM [1]: 4.1 mL/min/kg; half-life at 1 μM [1]: 7.13 h; EC50 [2]: 0.082 µM; EC50 [3]: 0.032 µM
CC[C@@H]1CN2c3c(c(=O)n(C)c4ccc(C#N)nc34)OC[C@@H]2CN1[C@@H](CC)c1ccc(F)c(Cl)c1 (stereo in doubt) [Compound 197]			EC50 [4]: 0.312 µM; EC50 [2]: 0.078 µM; EC50 [3]: 0.039 µM
C[C@@H]1CN2c3c(c(=O)n(C)c4ccc(C#N)nc34)OC[C@@H]2CN1[C@@H](C)c1ccc(C(F)(F)F)cc1 (stereo in doubt) [Compound 223]			EC50 [4]: 0.679 µM; CLint scaled at 1 μM [1]: 18.3 mL/min/kg; half-life at 1 μM [1]: 1.58 h; EC50 [2]: 0.047 µM; EC50 [3]: 0.07 µM
CC[C@@H]1CN2c3c(c(=O)n(C)c4ccc(C#N)nc34)OC[C@@H]2CN1[C@@H](CC)c1ccc(C(F)(F)F)c(Cl)c1 (stereo in doubt) [Compound 246]			EC50 [4]: 0.265 µM; CLint scaled at 1 μM [1]: 1.1 mL/min/kg; half-life at 1 μM [1]: 25.7 h; EC50 [2]: 0.023 µM; EC50 [3]: 0.03 µM
[2H]C([2H])([2H])n1c(=O)c2c(c3nc(C#N)ccc31)N1C[C@@H](CC)N([C@@H](CC)c3ccc(C(F)(F)F)cc3)C[C@H]1CO2 (stereo in doubt) [Compound 251]			CLint scaled at 1 μM [1]: 8.6 mL/min/kg; half-life at 1 μM [1]: 3.38 h; EC50 [2]: 0.05 µM; EC50 [3]: 0.051 µM
CC[C@@H](c1ccc(Cl)c(Cl)c1)N1C[C@H]2COc3c(c4nc(C#N)ccc4n(C)c3=O)N2C[C@H]1C (stereo in doubt) [Compound 322]			EC50 [4]: 0.281 µM; CLint scaled at 1 μM [1]: 12.4 mL/min/kg; half-life at 1 μM [1]: 2.35 h; EC50 [2]: 0.025 µM; EC50 [3]: 0.012 µM
Cc1ccc2oc(C3CCN(c4nc(=O)n(C)c5ccc(C#N)nc45)CC3)nc2c1 [Compound 20]	1.16 µM	1.84 µM	
Cc1ccc2oc(C3CCN(c4nc(=O)n(C)c5ccc6nncn6c45)CC3)nc2c1 [Compound 22]	0.005 µM	> 10 µM	
CC[C@H]1CN([C@@H](CC)c2ccc(S(F)(F)(F)(F)F)cc2)[C@H](CC)CN1c1nc(=O)n(C)c2ccc(C#N)nc12 [Compound 28]		0.05 µM	IC50 [7]: 0.012 µM; CLint scaled at 1 μM [1]: 7.7 mL/min/kg; half-life at 1 μM [1]: 3.75 h
CC[C@H]1CN([C@@H](CC)c2ccc(C(F)(F)F)cc2)[C@H](CC)CN1c1nc2nncn2c2ccc(C#N)nc12 [Compound 34]	0.016 µM	0.042 µM	EC50 [4]: 0.335 µM; EC50 [2]: 0.044 µM; EC50 [3]: 0.067 µM
CC[C@H]1CN([C@H](CC)c2ccc(C(F)(F)F)cc2)[C@H](CC)CN1c1nc2nncn2c2ccc(C#N)nc12 [Compound 35]	0.016 µM	0.224 µM	
Cn1c(=O)nc(N2CCC3(CC2)COC(c2ccc(OC(F)(F)F)cc2)=N3)c2nc(C#N)ccc21 [Compound 36]			CLint scaled at 1 μM [1]: 2.7 mL/min/kg; half-life at 1 μM [1]: 10.9 h
CN(c1cccc(C#CC2CC2)c1)c1nc(=O)n(C)c2ccc(C#N)nc12 [Compound 46]	0.005 µM	0.324 µM	
CC[C@H]1CN(C(CO)c2ccc(S(F)(F)(F)(F)F)cc2)[C@H](CC)CN1c1nc(=O)n(C)c2ccc(C#N)nc12 (stereo partly shown) [Compound 77]	0.032 µM	0.081 µM	
CC[C@@H]1CN(c2nc3nncn3c3ccc(C#N)nc23)[C@@H](CC)CN1C(=O)Nc1ccc(C(F)(F)F)cc1 [Compound 95]	0.058 µM	0.303 µM	
CC[C@H]1CN([C@H](c2ccc(S(F)(F)(F)(F)F)cc2)c2nc(C3CC3)cs2)[C@H](CC)CN1c1nc(=O)n(C)c2ccc(C#N)nc12 [Compound 98]	0.01 µM	0.04 µM	
CC[C@H]1CN([C@@H](c2ccc(S(F)(F)(F)(F)F)cc2)c2nc(C3CC3)cs2)[C@H](CC)CN1c1nc(=O)n(C)c2ccc(C#N)nc12 [Compound 99]	0.004 µM	0.022 µM	
CCC(c1ccc(C23CC(C2)C3)nc1)N1C[C@H](CC)N(c2nc3nncn3c3ccc(C#N)nc23)C[C@H]1CC (stereo partly shown) [Compound 104]	0.018 µM	0.041 µM	
CC[C@H]1CN([C@@H](CC)c2ccc(C(F)(F)F)cc2)[C@H](CC)CN1c1nc2nccn2c2ccc(C#N)nc12 [Compound 109]	0.006 µM	0.071 µM	
CC[C@H]1CN([C@H](CC)c2ccc(C(F)(F)F)cc2)[C@H](CC)CN1c1nc2nccn2c2ccc(C#N)nc12 [Compound 110]	0.006 µM	0.117 µM	
CC[C@H]1CN([C@H]2CCCCc3cc(C(F)(F)F)ccc32)[C@H](CC)CN1c1nc2nncn2c2ccc(C#N)nc12 [Compound 113]	0.044 µM	0.161 µM	
CC[C@H]1CN([C@@H]2CCCCc3cc(C(F)(F)F)ccc32)[C@H](CC)CN1c1nc2nncn2c2ccc(C#N)nc12 [Compound 114]	0.03 µM	0.004 µM	
CC[C@H]1CN([C@@H](CC)c2nc(C3CC3)no2)[C@H](CC)CN1c1nc2nncn2c2ccc(C#N)nc12 [Compound 119]	0.003 µM	0.021 µM	
CC[C@H]1CN([C@H](CC)c2nc(C3CC3)no2)[C@H](CC)CN1c1nc2nncn2c2ccc(C#N)nc12 [Compound 120]	0.01 µM	0.352 µM	
CC[C@@H]1CN2c3c(c(=O)n(C)c4ccc(C#N)nc34)CC[C@@H]2CN1[C@H](CC)c1ccc(C(F)(F)F)cc1 [Compound 332]			CLint scaled at 1 μM [1]: 6.9 mL/min/kg; half-life at 1 μM [1]: 4.23 h; EC50 [2]: 0.064 µM; EC50 [3]: 0.13 µM
CC[C@@H]1CN2c3c(c4nncn4c4ccc(C#N)nc34)OC[C@@H]2CN1[C@@H](CC)c1ccc(C(F)(F)F)cc1 [Compound 334]			EC50 [4]: 0.241 µM; EC50 [2]: 0.031 µM; EC50 [3]: 0.026 µM

Now from value to compound, other results behind:

IC50 [5]	IC50 [6]	SMILES	further results
0.427 µM	0.126 µM	Cn1c(=O)nc(N2CCC(Oc3ccc(OC(F)(F)F)cc3)CC2)c2nc(C#N)ccc21 [Compound 5]	EC50 [2]: 0.728 µM
0.212 µM	0.775 µM	Cn1c(=O)c(C(N)=O)c(N2CCC3(CCN(c4ccc(OC(F)(F)F)cc4)C3)CC2)c2nc(C#N)ccc21 [Compound 6]	EC50 [2]: 1.8 µM
0.019 µM	> 10 µM	Cn1c(=O)c(C(N)=O)c(N2CCC3(CN(c4ccc(OC(F)(F)F)cc4)C3)C2)c2nc(C#N)ccc21 [Compound 15]	
0.02 µM	0.024 µM	Cn1c(=O)nc(N2CCC3(CC2)CC(c2ccc(OC(F)(F)F)cc2)=NO3)c2nc(C#N)ccc21 [Compound 31]	CLint scaled at 1 μM [1]: 5.1 mL/min/kg; half-life at 1 μM [1]: 5.7 h
0.017 µM	0.475 µM	Cn1c(=O)nc(N2CCC3(CC2)COC(c2ccc(OC(F)(F)F)cc2)=N3)c2nc(Cl)ccc21 [Compound 37]	
0.003 µM	0.311 µM	Cn1c(=O)nc(N2CCCc3c(C#CC4CC4)cccc32)c2nc(C#N)ccc21 [Compound 42]	
0.012 µM	0.036 µM	Cn1c(=O)nc(N2CCC3(CC2)CC(c2cccc(C(F)(F)F)c2)=NO3)c2nc(C#N)ccc21 [Compound 47]	
0.085 µM	0.185 µM	N#Cc1ccc2c(n1)c(N1CCC3(CC1)CC(c1ccc(C(F)(F)F)cc1)=NO3)nc1nncn12 [Compound 53]	
0.029 µM	0.248 µM	N#Cc1ccc2c(n1)c(N1CCC3(CC1)CC(c1ccc(SC(F)(F)F)cc1)=NO3)nc1nncn12 [Compound 54]	
0.01 µM	0.055 µM	CC[C@H]1CN(C(c2ccc(S(F)(F)(F)(F)F)cc2)c2nc(C3CC3)no2)[C@H](CC)CN1c1nc(=O)n(C)c2ccc(C#N)nc12 (stereo partly shown) [Compound 64]	
0.013 µM	0.033 µM	CC[C@@H]1CN(c2nc(=O)n(C)c3ccc(C#N)nc23)[C@@H](C)CN1[C@@H](c1ccc(F)cc1)c1ccc(SC(F)(F)F)cn1 [Compound 72]	
0.019 µM	0.041 µM	CC[C@H]1CN(C(COC)c2ccc(S(F)(F)(F)(F)F)cc2)[C@H](CC)CN1c1nc(=O)n(C)c2ccc(C#N)nc12 (stereo partly shown) [Compound 78]	
0.009 µM	0.136 µM	CC[C@@H]1CN2c3c(c(=O)n(C)c4ccc(C#N)nc34)OC[C@H]2CN1[C@@H](CC)c1ccc(C(F)(F)F)cc1 [Compound 107]	
0.026 µM	0.242 µM	CC[C@@H]1CN2c3c(c(=O)n(C)c4ccc(C#N)nc34)OC[C@H]2CN1[C@H](CC)c1ccc(C(F)(F)F)cc1 [Compound 108]	
